Measurements as given in US5310667A (priority 1989, dated 1994).
Values after ≈ are worked out from the molar mass of the structure shown.

Legend:
[1] = system: tobacco plants transformed with wild-type EPSP synthase gene; experiment: Relative effect of glyphosate spraying on transformed tobacco; assay type: in vivo, Nicotiana tobacam CV H425; conditions: WT, 0 total kill, 10 no effect, best transformant
Text: A culture of A. tumefaciens cells containing pMON567/pGV3111-SE was contacted with leaf disks taken from tobacco plants (Nicotiana tobacam CV H425) as described by Horsch (1985). The Agrobacterium cells inserted the variant EPSP synthase gene into the chromosomes of the plant cells. Plant cells resistant to kanamycin were selected and regenerated into differentiated plants by the procedure of Horsch (1985).
Progeny of these plants were propagated and grown to a rosette diameter of about 10 cm corresponding to a plant age of about four weeks. The plants were sprayed with glyphosate at levels corresponding to 0.4, 2.0 and 3.6 pounds acid equiv./acre. The effect of glyphosate on the transformed plants were scored at 7, 14 and 28 days. The effect was translated to a numerical scale of 0-10 in which 0 represents total kill and 10 is the normal, unsprayed plant. […] The values represent the best transformant for both wild-type EPSP synthase and glyphosate-tolerant EPSP synthase genes.

[2] = system: petunia leaf disks transformed with pMON546 (CaMV35S/EPSP synthase gene); experiment: Leaf disk callus growth on glyphosate media; assay type: cell-based; conditions: within 10 days
Experimental: (§1) Leaf disks with diameters of 6 mm (1/4 inch) were taken from surface-sterilized petunia leaves. They were cultivated on MS104 agar medium for 2 days to promote partial cell wall formation at the wound surfaces. They were then submerged in a culture of A. tumefaciens cells containing both pMON546 and GV3111-SE which had been grown overnight in Luria broth at 28° C., and shaken gently. The cells were removed from the bacterial suspension, blotted dry, and incubated upside down on filter paper placed over "nurse" cultures of tobacco cells, as described by Horsch (1980). After 2 or 3 days, the disks were transferred to petri dishes containing MS media with 500 μg/ml carbenicillin and 0. 0.1, 0.25, or 0.5 mM glyphosate (sodium salt), with no nurse cultures.
(§2) Control tissue was created using A. tumefaciens cells containing the helper plasmid pGV3111-SE and a different plant transformation vector, pMON505, which contained a T-DNA region with a NOS/NPTII/NOS kanamycin resistance gene and a NOS selectable marker gene identical to pMON546, but without the CaMV35S/EPSP synthase gene.

[3] = system: control petunia leaf disks (pMON505); experiment: Leaf disk callus growth on glyphosate media; assay type: cell-based; conditions: within 10 days
Experimental: as §1, §2

[4] = system: E. coli strain JM101; experiment: Growth on minimal medium plates with increasing glyphosate; assay type: cell-based; conditions: Escherichia coli, read-out: glyphosate concentration that inhibits endogenous EPSP synthase activity and growth on minimal media
Text: A multi-step screening procedure was used to identify glyphosate resistant variants of petunia EPSPS.

[5] = target: T1, variant petunia EPSP synthase with glycine (101) to alanine and glycine (144) to asparagine substitutions (Petunia hybrida, UniProt P11043, G173A/G216N); experiment: EPSP synthase kinetic constants (Ki glyphosate, Km PEP); assay type: biochemical
T1 construct: GGT codon for glycine (144) in the mature petunia EPSP synthase
Experimental: (§3) Kinetic constants (appKm PEP and appKi glyphosate) were determined for EPSP synthase as described below. Substrate kinetic parameters were determined at pH 7.0 in 50 mM HEPES (N-[2-hydroxyethyl]piperazine-N'-[2-ethanesulfonic acid]) buffer in the presence of 2 mM S3P and varying amounts of ^14 C-PEP (10 μM-400 μM), for 2.0 minutes at 25° C. Reactions were quenched with 100 mM Na Acetate in ethanol, pH 4.5, centrifuged and analyzed for product EPSP formation by HPLC with flow radioactivity detection. HPLC conditions were 0.35 MKPi, pH 6.5, on a Synchropak AX100 column at 1.0 ml/min.

[6] = target: T2, pMON8186 encoded petunia EPSP synthase variant (glycine (101) to alanine and glycine (144) to aspartic acid) (Petunia hybrida, UniProt P11043, G173A/G216D); experiment: EPSP synthase kinetic constants (appKi glyphosate, appKm PEP); assay type: biochemical
T2 construct: GGT codon for glycine (144) in the mature petunia EPSP synthase; made in house; host or cells: E. coli SR481
Experimental: The balance of the #215 preculture (~750 μl) was used to inoculate 2 ml of MOPS medium containing 50 μg/ml carbenicillin and was shaken overnight at 37° C. to reach saturation. Plasmid DNA was isolated from an aliquot of the saturated culture using an alkaline lysis procedure. The plasmid was designated pMON8186. An aliquot of the pMON8186 plasmid was used to transform the E. coli host SR481 (described above) and reselected on MOPS medium containing 10 mM glyphosate and 50 μg/ml carbenicillin. A single glyphosate resistant colony of pMON8186 was picked off the selection plate and used to inoculate 3 ml of 2XYT bacterial medium containing 50 μg/ml carbenicillin. The culture was then aerated on rotating wheel at 37° C. until saturated, then it was used to inoculate a larger 500 ml culture. The large culture was grown to saturation by shaking it overnight at 37° C. in a water bath. The bacterial cells were lysed and the extracts were assayed for EPSPS activity.
Specifically, the bacterial cell paste was washed twice with 0.9% saline, suspended in buffer (100 mM Tris-HCl, 5 mM benzamidine HCl) and passed twice through the French Pressure Cell at 1000 psi. The cell extract was separated from the cells by centrifuging at 15,000 x gravity for 10 mins. at 5° C. It was desalted using Sephadex G-50 (Pharmacia, Piscataway, N.J.). The desalted extract was assayed for EPSP synthase activity as follows:
To an assay mix (40 μl) containing shikimate-3-phosphate (2 mM), ^14 C-phosphoenolpyruvate (1 mM, 1.2 mCi/mmol), ammonium molybdate (0.1 mM), potassium fluoride (5 mM) in 50 mM HEPES-KOH, pH 7, was added the extract and incubated at 25° C. for 2 mins. The reaction was quenched by the addition of 50 μl of 50 μl of 90% ethanol/0.1M acetic acid, pH 4.5. […] The radioactivity of the eluent was monitored using a Radiomatic Flo-One Beta Instrument. […] The EPSP synthase activity was determined by measurement of the conversion of ^14 C-PEP to ^14 C-EPSP synthase, both of which are resolved under the above conditions of chromatography. The protein content of the extract was determined by the method of Bradford (Biorad Labs, Calif.). The specific activity of the extract is expressed as nanomoles of EPSP synthase formed/min/mg protein.
as §3, with “HPLC conditions were 0.35 MKPi, pH 6.5, on a Synchropak AX100 column at 1.0 ml/min.” left out

[7] = 0.1 mM glyphosate (sodium salt)
[8] = 0.25 mM glyphosate (sodium salt)
[9] = 0.5 mM glyphosate (sodium salt)

T2 sequence (P11043 73-516 G173A/G216D): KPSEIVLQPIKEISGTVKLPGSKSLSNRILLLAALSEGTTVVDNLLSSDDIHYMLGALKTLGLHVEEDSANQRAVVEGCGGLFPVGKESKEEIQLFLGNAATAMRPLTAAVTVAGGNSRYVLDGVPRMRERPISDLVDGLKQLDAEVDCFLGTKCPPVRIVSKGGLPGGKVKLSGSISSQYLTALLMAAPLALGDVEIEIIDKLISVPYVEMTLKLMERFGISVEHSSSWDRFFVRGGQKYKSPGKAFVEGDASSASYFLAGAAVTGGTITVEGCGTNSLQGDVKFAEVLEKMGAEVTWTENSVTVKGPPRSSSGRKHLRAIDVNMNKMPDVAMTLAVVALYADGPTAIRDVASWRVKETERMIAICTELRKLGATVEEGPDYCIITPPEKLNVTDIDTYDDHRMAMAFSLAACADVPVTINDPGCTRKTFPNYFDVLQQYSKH
T1 sequence (P11043 73-516 G173A/G216N): as the sequence (P11043 73-516 G173A/G216D) above, with D144N counted along it

O=C(O)CNCP(=O)(O)O [glyphosate, N-phosphonomethylglycine]
Relative Effect of Glyphosate ([1]; 0.4 pounds/Acre, day 7): 6.0 | Relative Effect of Glyphosate ([1]; 0.4 pounds/Acre, day 14): 7.0 | Relative Effect of Glyphosate ([1]; 0.4 pounds/Acre, day 28): 9.0 | Relative Effect of Glyphosate ([1]; 2.0 pounds/Acre, day 7): 5.0 | Relative Effect of Glyphosate ([1]; 2.0 pounds/Acre, day 14): 1.8 | Relative Effect of Glyphosate ([1]; 2.0 pounds/Acre, day 28): 0.8 | Relative Effect of Glyphosate ([1]; 3.6 pounds/Acre, day 7): 5.0 | Relative Effect of Glyphosate ([1]; 3.6 pounds/Acre, day 14): 1.7 | Relative Effect of Glyphosate ([1]; 3.6 pounds/Acre, day 28): 0.8 | callus growth [2, 7]: little detectable difference between the control disks and the transformed tissue | callus growth [2, 8]: substantial growth of transformed tissue | callus growth [2, 9]: a significant number of calli grew | callus growth [3, 7]: little detectable difference between the control disks and the transformed tissue | callus growth [3, 8]: very little growth of callus | callus growth [3, 9]: no callus growth | MIC [4]: 2000 µM (≈ 338 µg/mL) | Ki for glyphosate [5]: 960 µM | Ki/Km ([5]; Ki glyphosate / Km PEP): 10.5 | Ki for glyphosate [6]: 348 µM | Ki/Km ratio ([6]; Ki glyphosate / Km PEP): 7.7
